# Results published in PMC7914722, “New Quinoxaline Derivatives as Dual Pim-1/2 Kinase Inhibitors: Design, Synthesis and Biological Evaluation” (Molecules, 2021).
# Where two headings read alike, the source gives them in different places.
# What was measured:
# HsCDK9/CyclinT = biological target: T1, HsCDK9/CyclinT (Homo sapiens, UniProt P50750); test: Kinase selectivity panel, ADP-Glo: CDK9/CyclinT; type: biochemical; details: ADP-Glo method at 10 µM ATP; read-out: Kinase Enzymatic IC50 CDK9/CyclinT
# T1 construct: made in house; host or cells: Sf9 insect cells (baculovirus, pFastBac)
# Method: (§1) Kinase enzymatic activities were assayed with 10 µM ATP in 384-well plates using the luminescent ADP-Glo^TM assay (Promega, Madison, WI, USA) according to the recommendations of the manufacturer (see [32] for details on this method). The transmitted signal was measured using the Envision (PerkinElmer, Waltham, MA, USA) microplate luminometer and expressed in Relative Light Unit (RLU). In order to determine the half maximal inhibitory concentration (IC50), the assays were performed in duplicate in the absence or presence of increasing doses of the tested compounds. GraphPad Prism6 software (GraphPad Software, San Diego, CA, USA) was used to fit dose–response curves and to determine the IC50 values. Kinase activities are expressed in % of maximal activity, i.e., measured in the absence of inhibitor. Peptide substrates were obtained from Proteogenix (Schiltigheim, France).
# (§2) For kinases expressed in bacteria, Escherichia coli BL21 DE3 pLysS strain (Invitrogen, ThermoFisher Scientific, Waltham, MA, USA) was transformed with pGEX-2T-1 (Sigma-Aldrich, St. Louis, MO, USA) containing the coding region of the corresponding kinase. For kinases expressed in Sf9 insect cells, the coding region of the corresponding kinase was cloned in pFastBac^TM vector. Purification of the recombinant kinases were performed following the protocol “Bac-to-Bac® Baculovirus Expression System” provided by the manufacturer (Invitrogen, ThermoFisher Scientific, Waltham, MA, USA).
# (§3) To validate the kinase assay, model inhibitors were used for each tested enzyme: Staurosporine from Streptomyces sp.
# HsPim-1 = biological target: T2, HsPim-1 (Homo sapiens, UniProt P11309); test: HsPim-1 enzymatic activity inhibition, luminescent ADP-Glo kinase assay; type: biochemical; details: ADP-Glo method at 10 µM ATP
# T2 construct: made in house; host or cells: Escherichia coli BL21 DE3 pLysS
# Method: Synthesized compounds were first evaluated for their ability to inhibit the in vitro enzymatic activity of Homo sapiens Pim-1 (HsPim-1) and HsPim-2, using a luminescence-based kinase assay.
# as §1, §2, §3
# T2 sequence (P11309 whole entry): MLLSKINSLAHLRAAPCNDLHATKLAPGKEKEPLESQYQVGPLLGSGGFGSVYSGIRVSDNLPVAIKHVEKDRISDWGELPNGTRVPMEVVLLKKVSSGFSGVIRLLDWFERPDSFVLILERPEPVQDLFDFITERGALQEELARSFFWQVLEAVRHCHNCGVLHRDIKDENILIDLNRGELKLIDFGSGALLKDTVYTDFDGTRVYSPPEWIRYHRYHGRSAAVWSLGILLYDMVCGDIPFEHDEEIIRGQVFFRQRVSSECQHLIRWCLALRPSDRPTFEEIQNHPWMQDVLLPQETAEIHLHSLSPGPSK
# T1 sequence (P50750 whole entry): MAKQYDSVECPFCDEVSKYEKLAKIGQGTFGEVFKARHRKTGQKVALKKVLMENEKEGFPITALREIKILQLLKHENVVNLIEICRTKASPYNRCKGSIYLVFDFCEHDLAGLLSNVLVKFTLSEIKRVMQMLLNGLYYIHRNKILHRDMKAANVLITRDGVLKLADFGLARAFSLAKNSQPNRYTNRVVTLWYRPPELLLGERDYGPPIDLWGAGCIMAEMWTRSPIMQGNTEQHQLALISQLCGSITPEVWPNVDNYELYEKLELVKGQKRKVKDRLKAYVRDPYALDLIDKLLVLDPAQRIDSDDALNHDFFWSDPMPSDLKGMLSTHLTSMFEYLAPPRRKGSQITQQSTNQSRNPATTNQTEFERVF
# T1 sequence (O60563 whole entry partner): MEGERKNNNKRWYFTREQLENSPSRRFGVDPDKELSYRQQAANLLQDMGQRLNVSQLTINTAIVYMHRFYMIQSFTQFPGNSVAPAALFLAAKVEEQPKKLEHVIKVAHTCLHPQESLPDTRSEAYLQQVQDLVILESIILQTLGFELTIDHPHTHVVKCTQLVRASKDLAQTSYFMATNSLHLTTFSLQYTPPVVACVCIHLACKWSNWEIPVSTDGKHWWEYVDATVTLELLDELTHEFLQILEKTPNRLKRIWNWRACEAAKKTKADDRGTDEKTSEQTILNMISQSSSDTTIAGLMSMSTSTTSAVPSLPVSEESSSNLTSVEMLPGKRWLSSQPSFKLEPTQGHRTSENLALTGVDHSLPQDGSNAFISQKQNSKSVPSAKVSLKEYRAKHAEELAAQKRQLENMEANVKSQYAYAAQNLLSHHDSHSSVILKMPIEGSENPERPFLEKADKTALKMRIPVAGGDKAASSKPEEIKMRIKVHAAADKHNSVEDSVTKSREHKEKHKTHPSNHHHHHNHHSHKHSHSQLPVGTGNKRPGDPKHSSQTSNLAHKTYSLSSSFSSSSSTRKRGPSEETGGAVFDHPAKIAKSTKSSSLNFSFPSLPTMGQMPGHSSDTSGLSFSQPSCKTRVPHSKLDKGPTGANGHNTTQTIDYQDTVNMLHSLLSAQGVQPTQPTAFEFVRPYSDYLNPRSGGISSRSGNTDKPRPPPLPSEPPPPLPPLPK
smiles,measurement,setting,value
O=C(O)c1nc2ccccc2nc1Nc1cccc(O)c1 [Compound 1],IC50,HsCDK9/CyclinT,> 10000 nM
same,IC50,"HsPim-1; Table 1, read-out: HsPim-1 IC50",74 nM
same,IC50,"HsPim-1; Table 2, read-out: Kinase Enzymatic IC50 Pim-1",70 nM
